≈ marks a conversion by molar mass, not a printed value. Where “and” joins values, the source holds several entries; their conditions need not be identical. Identical values can stand only once.
Key:
[1] = system: S. aureus strains; experiment: Minimum inhibitory concentration assay, panel of S. aureus strains; format: cell-based; conditions: panel of 12 S. aureus isolates; compared to nisin A
Description: (§1) Minimum inhibitory concentration determinations were carried out in triplicate in 96 well microtitre plates. 96 well microtitre plates were pre-treated with bovine serum albumin (BSA) prior to addition of the peptides. Briefly, to each well of the microtitre plate 200 µL of phosphate buffered saline (PBS) containing 1% (w/v) bovine serum albumin (PBS/BSA) was added and incubated at 37°C for 30 min. The wells were washed with 200 µL PBS and allowed to dry. Target strains were grown overnight in the appropriate conditions and medium, subcultured into fresh broth and allowed to grow to an OD600 of ∼0.5, diluted to a final concentration of 10^5 cfu ml^-1 in a volume of 0.2 ml. The lyophilised peptides were resuspended in the appropriate media to a stock concentration of 30 µM. Wild type nisin and nisin mutant peptides were adjusted to a 7.5 or 5.0 µM or 500 nM starting concentration and 2-fold serial dilutions of each peptide were made in 96 well plates for a total of 12 dilutions.
(§2) To confirm that the observed enhanced activity of the nisin variants was due to increased specific activity, the activity of purified peptides were assessed using classical broth-based minimum inhibitory concentration (MIC) determination assays. […] Also included were the lactic acid bacteria targets L. lactis MG1363, L. lactis spp. lactis HP, B. longum UCC44b and Lb acidophilus ATCC 4356.

[2] = system: S. agalactiae ATCC13813; experiment: Deferred antagonism assay; format: cell-based; conditions: producing strain
Description: (§3) Mutagenesis of the nisA gene was carried out as described previously (Field et al., 2008). Briefly, saturation mutagenesis was carried out using pDF05 (pCI372-nisA) as template and using oligonucleotides containing an NNK codon in place of each native codon. PCR amplification was performed in a 50 µl reaction containing approximately 0.5 ng of target DNA (pDF05), 1 unit Phusion High-Fidelity DNA polymerase (Finnzymes, Finland), 1 mM dNTPs and 500 ng each of the appropriate forward and reverse oligonucleotide. The reaction was pre-heated at 98°C for 2 min, and then incubated for 29 cycles at 98°C for 30 s, 55°C for 15 s and 72°C for 3 min 30 s, and then finished by incubating at 72°C for 3 min 30 s. Amplified products were treated with Dpn1 (Stratagene) for 60 min at 37°C to digest template DNA and purified using the QIAquick PCR purification kit. Following transformation of E. coli Top 10 cells plasmid DNA was isolated and sequenced using primers pCI372FOR (5' […] 3') and pCI372REV (5' […] 3') to verify that mutagenesis had taken place. Approximately 150 transformants were chosen at random for each position and inoculated into 96-well plates containing GM17 chloramphenicol, incubated overnight and stored at -20°C after addition of 80% glycerol. Deferred antagonism assays were performed by replicating strains on GM17 agar plates and allowing them to grow overnight before overlaying with BHI agar (0.75% w/v agar) seeded with the appropriate indicator strain.
(§4) Previously, site-saturation mutagenesis-based strategies were used to generate strains producing bioengineered nisin derivatives in which all residues not involved in lanthionine ring formation (i.e. I1, T2, 14, S5, L6, P9, G10, K12, G14, A15, L16, M17, G18, N20, M21, K22, A24, H27, S29 130, H31, V32, S33 and K34) were each randomised to potentially all other natural amino acids, or whereby all three residues of the hinge-region (NMK) were randomised simultaneously (Rouse et al., 2012, Healy et al., 2013, Field et al., 2008). […] From this screen 76 variants of interest from the first round of screening were incorporated into a "mini-bank" for subsequent further analysis. The number of indicator strains was increased from five to thirteen to include S. uberis 43382, S. uberis DPC5344, S. dysgalactiae ATCC43078, L. lactis 303, L. cremoris KH, Lactobacillus bulgaricus NCDO2489, Lb. helveticus 2079 and Lb. acidophilus ATCC4356 (Table 1). Following this second round of screening, 6 variants of interest were deemed worthy of closer inspection. DNA sequencing of the mutated nisin gene as well as mass spectrometric analysis of the peptide produced by each strain established that these corresponded to nisin M17Q (methionine at position 17 altered to glutamine), nisin T2L (threonine 2 leucine) nisin HTK, VGA, VGV or VGT (where the hinge residues Asn-Met-Lys have been altered to His-Thr-Lys, Val-Gly-Ala, Val-Gly-Val or Val-Gly-Thr respectively). […] As a result, these derivatives were eliminated from this study, but will be the subject of further investigation as potential anti-mastitis antimicrobials. […] In the case of the derivatives nisin T2L and nisin HTK, the activity appeared reduced and equivalent to nisin A respectively (Figure 1), while improved activity was observed by both derivatives against S. agalactiae ATCC13813 and S. aureus RF122 (Table 2). On this basis, the nisin derivatives M17Q, T2L and HTK were selected for purification and specific activity assays. Purified peptides were subjected to Mass Spectrometry to confirm the correct mass in each case. In the case of T2L and HTK derivatives, the threonine remained in the unmodified form (data not shown).

[3] = system: S. aureus RF122; experiment: Deferred antagonism assay; format: cell-based; conditions: producing strain
Description: as §3, §4

[4] = system: L. lactis MG1363; experiment: Deferred antagonism assay; format: cell-based; conditions: producing strain
Description: as §3, §4

[5] = system: L. lactis HP; experiment: Deferred antagonism assay; format: cell-based; conditions: producing strain
Description: as §3, §4

[6] = system: S. aureus 54072; format: cell-based
Description: as §1, §2

[7] = system: S. aureus RF122; format: cell-based
Description: as §1, §2

[8] = system: L. lactis MG1363; format: cell-based
Description: as §1, §2

[9] = system: B. longum UCC 44b; format: cell-based
Description: as §1, §2

[10] = system: S. aureus NCDO1499; format: cell-based
Description: as §1, §2

[11] = system: S. aureus 20777; format: cell-based
Description: as §1, §2

[12] = system: Lb. acidophilus ATCC 4356; format: cell-based
Description: as §1, §2

[13] = system: S. aureus DPC 5247; experiment: Minimum inhibitory concentration assay; format: cell-based; conditions: purified peptide
Description: as §1, §2

[14] = system: S. aureus 272; experiment: Minimum inhibitory concentration assay; format: cell-based; conditions: purified peptide
Description: as §1, §2

[15] = system: S. aureus DPC 5243; experiment: Minimum inhibitory concentration assay; format: cell-based; conditions: purified peptide
Description: as §1, §2

[16] = system: L. lactis HP; experiment: Minimum inhibitory concentration assay; format: cell-based
Description: as §1, §2

[17] = system: S. aureus DPC 5245; experiment: Minimum inhibitory concentration assay; format: cell-based; conditions: purified peptide
Description: as §1, §2

[18] = system: S. aureus ST528(MRSA); experiment: Minimum inhibitory concentration assay; format: cell-based; conditions: S. aureus ST528(MRSA); purified peptide
Description: as §1, §2

[19] = system: S. aureus ST534(MRSA); experiment: Minimum inhibitory concentration assay; format: cell-based; conditions: S. aureus ST534(MRSA); purified peptide
Description: as §1, §2

[20] = system: S. aureus 513; experiment: Minimum inhibitory concentration assay; format: cell-based; conditions: purified peptide
Description: as §1, §2

[21] = system: S. aureus 5971; experiment: Minimum inhibitory concentration assay; format: cell-based; conditions: purified peptide
Description: as §1, §2

[22] = positive charge at position 17 replacing Methionine; Wiedemann et al., 2001; cited from earlier work

C=C(NC(=O)[C@@H](NC(=O)[C@H](Cc1c[nH]cn1)NC(=O)[C@@H](NC(=O)[C@H](CO)NC(=O)[C@@H]1CS[C@@H](C)[C@H]2NC(=O)[C@H](C)NC(=O)[C@H](NC(=O)[C@H](CCCCN)NC(=O)[C@@H](NC(=O)[C@H](Cc3c[nH]cn3)NC(=O)[C@@H]3CS[C@@H](C)[C@@H](NC(=O)[C@H](CCCCN)NC(=O)[C@@H]4CS[C@@H](C)[C@@H](NC(=O)[C@@H]5CSC[C@@H](NC(=O)/C(=C/C)NC(=O)[C@@H](N)[C@@H](C)CC)C(=O)N[C@@H]([C@@H](C)CC)C(=O)NC(=C)C(=O)N[C@@H](CC(C)C)C(=O)N5)C(=O)N5CCC[C@H]5C(=O)NCC(=O)N4)C(=O)NCC(=O)N[C@@H](C)C(=O)N[C@@H](CC(C)C)C(=O)N[C@@H](CCSC)C(=O)NCC(=O)N3)[C@@H](C)O)[C@H](C)SC[C@H](NC2=O)C(=O)N[C@@H](Cc2c[nH]cn2)C(=O)N1)[C@@H](C)CC)C(C)C)C(=O)N[C@@H](CCCCN)C(=O)O [HTK, nisin HTK]
number of S. aureus strains with enhanced specific activity [1]: 6
zone of inhibition (area of the zone of inhibition minus the area of the spot) [2]: 148.14 ± 3.66 mm2
zone of inhibition (area of the zone of inhibition minus the area of the spot) [3]: 106.66 ± 3.00 mm2
zone of inhibition (area of the zone of inhibition minus the area of the spot) [4]: 137.70 ± 5.40 mm2
zone of inhibition (area of the zone of inhibition minus the area of the spot) [5]: 230.58 ± 6.71 mm2
MIC [6]: 0.25 µg/mL (≈ 0.0747 µM)
MIC [7]: 1 µg/mL (≈ 0.299 µM)
MIC [8]: 0.4 µg/mL (≈ 0.12 µM)
MIC [9]: 0.24 µg/mL (≈ 0.0717 µM)
fold decreased activity compared to wild type peptide [9]: 4 fold
MIC [10]: 0.03 µg/mL (≈ 0.00896 µM)
MIC [11]: 0.125 µg/mL (≈ 0.0373 µM)
MIC [12]: 0.12 µg/mL (≈ 0.0359 µM)
fold reduction in specific activity compared to wild type nisin A [12]: 4 fold
Specific activity (MIC) ([12]; purified peptide): 0.12 Mg/L and 0.044 µM
Specific activity (MIC) [13]: 1 Mg/L and 0.312 µM
Specific activity (MIC) [14]: 6 Mg/L and 1.875 µM
Specific activity (MIC) [15]: 1 Mg/L and 0.312 µM
fold reduction in potency ([16]; compared to wild-type nisin A): 2 fold
Specific activity (MIC) ([16]; purified peptide): 0.4 Mg/L and 0.125 µM
Specific activity (MIC) [17]: 1 Mg/L and 0.312 µM
Specific activity (MIC) [18]: 0.25 Mg/L and 0.078 µM
Specific activity (MIC) [19]: 1 Mg/L and 0.312 µM
Specific activity (MIC) [20]: 6 Mg/L and 1.875 µM
Specific activity (MIC) [21]: 12.57 Mg/L and 3.75 µM

Nisin Z M17K
antimicrobial activity reduced to [22]: 50%

Reference: patent EP3822285A1, “VARIANT NISIN PEPTIDES” (University College Cork-National University of Ireland, Cork, priority 2019, dated 2021)
